Source: paper PMC6010098, “Synthesis, antitumour and antioxidant activities of novel α,β-unsaturated ketones and related heterocyclic analogues: EGFR inhibition and molecular modelling study” (Journal of Enzyme Inhibition and Medicinal Chemistry, 2018)
Where two headings read alike, the source gives them in different places.

Columns and labels:
HepG2 cells = assay: MTT antitumour assay, HepG2; assay type: cell-based; settings: human hepato-cellular carcinoma cell line, mean ± SD, n = 3
Procedure: (§1) The evaluation of the antitumour activity was performed using tetrazolium salt MTT (3-(4,5-dimethyl-2-thiazolyl)-2,5-diphenyl-2H-tetrazolium bromide) assay as reported[62]^,[63].
(§2) The designed compounds were evaluated for their in vitro antitumour effects via the standard 3-(4,5-dimethylthiazol-2-yl)-2,5-diphenyltetrazolium bromide (MTT) method against a panel of four human tumour cell lines; namely, hepatocellular carcinoma cell line (HepG2), breast cancer cell line (MCF-7), human cervical cancer cell line (HeLa), and prostate cancer cell line (PC-3)[62]^,[63]^,[72]. The antitumour activities of the designed compounds 4–12, along with that of the reference drugs 5-FU and afatinib are shown in Table 1.

MCF-7 cells = assay: MTT antitumour assay, MCF-7; assay type: cell-based; settings: MCF7, human breast adenocarcinoma cell line, mean ± SD, n = 3
Procedure: as §1, §2

[1] = system: HepG2, MCF-7, HeLa, and PC-3 cancer cell lines; assay: MTT antitumour assay, range over the four cell lines; assay type: cell-based, human; settings: range over HepG2, MCF-7, HeLa, PC-3 (and over the compounds named), read-out: IC50 range against the tested cell lines
Procedure: as §1, §2

PC-3 cells = assay: MTT antitumour assay, PC-3; assay type: cell-based; settings: human prostate cancer cell line, mean ± SD, n = 3
Procedure: as §1, §2

HeLa cells = assay: MTT antitumour assay, HeLa; assay type: cell-based; settings: human cervical epithelioid carcinoma cell line, mean ± SD, n = 3
Procedure: as §1
as §2, with “(PC-3)[62]^,[63]^,[72].” for “(PC-3)[62]^,[63]^,[72]. The antitumour activities of the designed compounds 4–12, along with that of the reference drugs 5-FU and afatinib are shown in Table 1.”

[2] = ABTS radical cation scavenging (antioxidant) assay; settings: 20 µl of 1 mg/ml test sample (L-ascorbic acid 20 µl, 2 mM)
Procedure: The absorbance (Acontrol) of a green-blue solution (ABTS^+ radical solution) resulted from a mixture of ABTS and manganese dioxide (MnO2) and was recorded at λmax 734 nm, according to the reported procedure[64]^,[65]. The absorbance (Atest) was measured upon the addition of 20 µl of 1 mg/ml solution of the test sample in spectroscopic grade methanol/phosphate buffer (1:1 v/v) to the ABTS solution. The decrease in absorbance is expressed as % inhibition, which can be calculated from the following equation: % inhibition = Acontrol-Atest/Acontrol×100.
L-Ascorbic acid 20 µl (2 mM) solution was used as standard antioxidant (positive control). A blank sample was run using only methanol/phosphate buffer (1:1), while the negative control was run with ABTS and the methanol/phosphate buffer.
The assay is based on measuring the ability of the tested compounds to scavenge the long-life radical cation of ABTS[22]^,[43]^,[64]^,[65].

EGFR kinase = EGFR kinase (Homo sapiens, UniProt P00533); assay: ELISA-based EGFR kinase inhibition assay; settings: for inhibition at 0.15 µM: read-out: % Inhibition EGFR, 0.15 μM; for inhibition at 0.31 µM: read-out: % Inhibition EGFR, 0.31 μM; for inhibition at 0.625 µM: read-out: % Inhibition EGFR, 0.625 μM; for inhibition at 1.25 µM: read-out: % Inhibition EGFR, 1.25 μM; for inhibition at 2.5 µM: read-out: % Inhibition EGFR, 2.5 μM; for inhibition at 5 µM: read-out: % Inhibition EGFR, 5.0 μM; for inhibition at 10 µM: read-out: % Inhibition EGFR, 10.0 μM; for Conc. (Average), ELISA read-out: duplicate wells, standards in ng/ml, cont 134.9
Chain of EGFR kinase (P00533 25-1210): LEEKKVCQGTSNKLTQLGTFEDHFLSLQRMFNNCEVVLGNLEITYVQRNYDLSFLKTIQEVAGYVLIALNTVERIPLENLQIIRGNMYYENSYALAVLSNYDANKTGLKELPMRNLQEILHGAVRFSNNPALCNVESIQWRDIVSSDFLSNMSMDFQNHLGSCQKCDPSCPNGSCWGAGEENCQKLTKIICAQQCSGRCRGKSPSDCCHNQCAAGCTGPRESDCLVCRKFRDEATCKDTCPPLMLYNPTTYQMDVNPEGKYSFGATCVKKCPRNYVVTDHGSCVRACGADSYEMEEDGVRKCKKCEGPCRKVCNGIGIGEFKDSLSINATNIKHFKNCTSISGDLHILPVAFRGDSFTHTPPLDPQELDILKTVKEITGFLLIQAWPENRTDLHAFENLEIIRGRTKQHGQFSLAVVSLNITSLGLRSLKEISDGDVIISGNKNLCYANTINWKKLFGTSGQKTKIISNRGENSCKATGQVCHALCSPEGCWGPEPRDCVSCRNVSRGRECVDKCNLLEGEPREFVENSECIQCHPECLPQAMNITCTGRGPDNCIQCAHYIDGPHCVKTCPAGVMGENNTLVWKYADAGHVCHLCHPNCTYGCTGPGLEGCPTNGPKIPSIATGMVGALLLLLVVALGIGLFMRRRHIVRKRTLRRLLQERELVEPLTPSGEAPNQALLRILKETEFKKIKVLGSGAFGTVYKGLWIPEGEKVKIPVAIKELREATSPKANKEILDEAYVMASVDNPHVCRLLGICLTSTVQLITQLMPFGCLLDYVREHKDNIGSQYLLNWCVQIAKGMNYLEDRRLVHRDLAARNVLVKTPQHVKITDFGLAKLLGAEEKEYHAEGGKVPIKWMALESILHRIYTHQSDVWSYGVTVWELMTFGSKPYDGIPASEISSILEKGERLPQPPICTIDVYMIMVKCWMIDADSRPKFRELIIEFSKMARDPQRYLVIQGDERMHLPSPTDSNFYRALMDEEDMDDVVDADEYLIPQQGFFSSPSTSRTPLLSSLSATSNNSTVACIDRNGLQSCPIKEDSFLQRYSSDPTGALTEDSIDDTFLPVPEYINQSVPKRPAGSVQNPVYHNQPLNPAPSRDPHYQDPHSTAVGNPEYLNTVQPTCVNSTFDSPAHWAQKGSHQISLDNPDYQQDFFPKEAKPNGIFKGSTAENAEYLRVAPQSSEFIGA

Row | SMILES | IC50 (HepG2 cells) [µM] | IC50 (MCF-7 cells) [µM] | IC50 ([1]; Homo sapiens) [µM] | IC50 (PC-3 cells; PC-3, MTT) [µM] | IC50 (HeLa cells) [µM] | %Inhibition of the ABTS radical cation [2] [%] | IC50 (EGFR kinase) [µM] | % Inhibition EGFR (EGFR kinase; 0.15 μM) [%] | % Inhibition EGFR (EGFR kinase; 0.31 μM) [%] | % Inhibition EGFR (EGFR kinase; 0.625 μM) [%] | % Inhibition EGFR (EGFR kinase; 1.25 μM) [%] | % Inhibition EGFR (EGFR kinase; 2.5 μM) [%] | % Inhibition EGFR (EGFR kinase; 5.0 μM) [%] | % Inhibition EGFR (EGFR kinase; 10.0 μM) [%] | inhibition at 0.15 µM (EGFR kinase) [%] | inhibition at 0.31 µM (EGFR kinase) [%] | inhibition at 0.625 µM (EGFR kinase) [%] | inhibition at 1.25 µM (EGFR kinase) [%] | inhibition at 2.5 µM (EGFR kinase) [%] | inhibition at 5 µM (EGFR kinase) [%] | further results
1 | O=c1[nH]cc(F)c(=O)[nH]1 [5-FU, 5-fluorouracil, reference compound] | 7.9 ± 0.17 | 5.4 ± 0.2 | 4.8 to 8.3 | 8.3 ± 0.35 | 4.8 ± 0.21 |  |  |  |  |  |  |  |  |  |  |  |  |  |  |  | 
2 | CCN1CCC(=O)C(=Cc2ccc(OC3CCCC3)cc2)C1 [6b, 3-(4-(Cyclopentyloxy)benzylidene)-1-ethylpiperidin-4-one] | 13 ± 0.87 | 13.7 ± 1.35 | 5.5 to 18.1 | 9.1 ± 0.88 | 6.7 ± 0.67 | 55.1 | 0.56 | 26.52 | 48.95 | 55.33 | 61.23 | 64.44 | 76.71 | 83.66 | 26.5 | 49 | 55.3 | 61.2 | 64.4 | 76.7 | inhibition at 10 µM (EGFR kinase): 83.7%; Conc. (Average), ELISA read-out (EGFR kinase; sample at 0.15uM): 99.12; Conc. (Average), ELISA read-out (EGFR kinase; sample at 0.31uM): 68.86; Conc. (Average), ELISA read-out (EGFR kinase; sample at 0.62uM): 60.25; Conc. (Average), ELISA read-out (EGFR kinase; sample at 1.25uM): 52.29; Conc. (Average), ELISA read-out (EGFR kinase; sample at 2.5uM): 47.96; Conc. (Average), ELISA read-out (EGFR kinase; sample at 5uM): 31.41; Conc. (Average), ELISA read-out (EGFR kinase; sample at 10uM): 22.04
3 | CCOC(=O)C1=C(C)OC(N)=C(C#N)C1c1ccc(OC2CCCC2)cc1 (stereo not drawn) [compound 7, ethyl 6-amino-5-cyano-4-(4-(cyclopentyloxy)phenyl)-2-methyl-4H-pyran-3-carboxylate] | 8 ± 0.38 | 7.5 ± 0.54 | 5.5 to 18.1 | 13.3 ± 1.26 | 10.3 ± 1.13 | 75.8 | 1.6 | 8.22 | 31.78 | 43.27 | 49.65 | 52.86 | 65.98 | 72.78 | 8.23 | 31.8 | 43.3 | 49.7 | 52.9 | 66 | inhibition at 10 µM (EGFR kinase): 72.8%; Conc. (Average), ELISA read-out (EGFR kinase; sample at 0.15uM): 123.8; Conc. (Average), ELISA read-out (EGFR kinase; sample at 0.31uM): 92.02; Conc. (Average), ELISA read-out (EGFR kinase; sample at 0.62uM): 76.52; Conc. (Average), ELISA read-out (EGFR kinase; sample at 1.25uM): 67.92; Conc. (Average), ELISA read-out (EGFR kinase; sample at 2.5uM): 63.59; Conc. (Average), ELISA read-out (EGFR kinase; sample at 5uM): 45.89; Conc. (Average), ELISA read-out (EGFR kinase; sample at 10uM): 36.71
4 | CN(C)C/C=C/C(=O)Nc1cc2c(Nc3ccc(F)c(Cl)c3)ncnc2cc1O[C@H]1CCOC1 [Afatinib, reference compound] | 5.4 ± 0.25 | 7.1 ± 0.49 | 5.4 to 7.6 |  | 6.2 ± 0.67 |  |  |  |  |  |  |  |  |  |  |  |  |  |  |  | IC50 (PC-3 cells; Homo sapiens, PC-3, MTT): 7.6 µM; IC50 (PC-3 cells; MTT): 7.7 ± 0.57 µM
5 | Cc1ccc(C2=NN(c3ccccc3)C(c3ccc(OC4CCCC4)cc3)C2)cc1 (stereo not drawn) [8b, 5-(4-(Cyclopentyloxy)phenyl)-1-phenyl-3-(4-methylphenyl)-4,5-dihydro-1H-pyrazole] | 7.2 ± 0.24 | 5.6 ± 0.36 | 5.5 to 18.1 | 7.8 ± 0.56 | 5.5 ± 0.45 | 88.5 | 2.16 | 6.96 | 26.25 | 43.85 | 47.28 | 50.51 | 60.72 | 64.88 | 6.97 | 26.3 | 43.9 | 47.3 | 50.5 | 60.7 | inhibition at 10 µM (EGFR kinase): 64.9%; Conc. (Average), ELISA read-out (EGFR kinase; sample at 0.15uM): 125.5; Conc. (Average), ELISA read-out (EGFR kinase; sample at 0.31uM): 99.48; Conc. (Average), ELISA read-out (EGFR kinase; sample at 0.62uM): 75.74; Conc. (Average), ELISA read-out (EGFR kinase; sample at 1.25uM): 71.11; Conc. (Average), ELISA read-out (EGFR kinase; sample at 2.5uM): 66.76; Conc. (Average), ELISA read-out (EGFR kinase; sample at 5uM): 52.98; Conc. (Average), ELISA read-out (EGFR kinase; sample at 10uM): 47.37; IC50 [1]: 5.5 to 7.8 µM
6 | Cc1ccc(C(=O)C=Cc2ccc(OC3CCCC3)cc2)cc1 [4b, 3-(4-(Cyclopentyloxy)phenyl)-1-(4-methylphenyl)prop-2-en-1-one] | 20 ± 1.11 | 36.4 ± 2.6 |  | 17.1 ± 1.58 | 18.8 ± 1.57 | 52.6 |  |  |  |  |  |  |  |  |  |  |  |  |  |  | 
7 | O=C1O[C@H]([C@@H](O)CO)C(O)=C1O [Ascorbic acid, L-Ascorbic acid, reference compound] |  |  |  |  |  | 90.0 |  |  |  |  |  |  |  |  |  |  |  |  |  |  | 
